Drawing on patent US10035801B2, “Pyrazolo compounds and uses thereof” (CONSTELLATION PHARMACEUTICALS, INC., priority 2013, dated 2018), this text covers IC50 for 49 compounds.

Structures are written as SMILES.

The IC50 is the point on the concentration scale where inhibition reaches its midpoint.

T1 sequence (P29375 whole entry): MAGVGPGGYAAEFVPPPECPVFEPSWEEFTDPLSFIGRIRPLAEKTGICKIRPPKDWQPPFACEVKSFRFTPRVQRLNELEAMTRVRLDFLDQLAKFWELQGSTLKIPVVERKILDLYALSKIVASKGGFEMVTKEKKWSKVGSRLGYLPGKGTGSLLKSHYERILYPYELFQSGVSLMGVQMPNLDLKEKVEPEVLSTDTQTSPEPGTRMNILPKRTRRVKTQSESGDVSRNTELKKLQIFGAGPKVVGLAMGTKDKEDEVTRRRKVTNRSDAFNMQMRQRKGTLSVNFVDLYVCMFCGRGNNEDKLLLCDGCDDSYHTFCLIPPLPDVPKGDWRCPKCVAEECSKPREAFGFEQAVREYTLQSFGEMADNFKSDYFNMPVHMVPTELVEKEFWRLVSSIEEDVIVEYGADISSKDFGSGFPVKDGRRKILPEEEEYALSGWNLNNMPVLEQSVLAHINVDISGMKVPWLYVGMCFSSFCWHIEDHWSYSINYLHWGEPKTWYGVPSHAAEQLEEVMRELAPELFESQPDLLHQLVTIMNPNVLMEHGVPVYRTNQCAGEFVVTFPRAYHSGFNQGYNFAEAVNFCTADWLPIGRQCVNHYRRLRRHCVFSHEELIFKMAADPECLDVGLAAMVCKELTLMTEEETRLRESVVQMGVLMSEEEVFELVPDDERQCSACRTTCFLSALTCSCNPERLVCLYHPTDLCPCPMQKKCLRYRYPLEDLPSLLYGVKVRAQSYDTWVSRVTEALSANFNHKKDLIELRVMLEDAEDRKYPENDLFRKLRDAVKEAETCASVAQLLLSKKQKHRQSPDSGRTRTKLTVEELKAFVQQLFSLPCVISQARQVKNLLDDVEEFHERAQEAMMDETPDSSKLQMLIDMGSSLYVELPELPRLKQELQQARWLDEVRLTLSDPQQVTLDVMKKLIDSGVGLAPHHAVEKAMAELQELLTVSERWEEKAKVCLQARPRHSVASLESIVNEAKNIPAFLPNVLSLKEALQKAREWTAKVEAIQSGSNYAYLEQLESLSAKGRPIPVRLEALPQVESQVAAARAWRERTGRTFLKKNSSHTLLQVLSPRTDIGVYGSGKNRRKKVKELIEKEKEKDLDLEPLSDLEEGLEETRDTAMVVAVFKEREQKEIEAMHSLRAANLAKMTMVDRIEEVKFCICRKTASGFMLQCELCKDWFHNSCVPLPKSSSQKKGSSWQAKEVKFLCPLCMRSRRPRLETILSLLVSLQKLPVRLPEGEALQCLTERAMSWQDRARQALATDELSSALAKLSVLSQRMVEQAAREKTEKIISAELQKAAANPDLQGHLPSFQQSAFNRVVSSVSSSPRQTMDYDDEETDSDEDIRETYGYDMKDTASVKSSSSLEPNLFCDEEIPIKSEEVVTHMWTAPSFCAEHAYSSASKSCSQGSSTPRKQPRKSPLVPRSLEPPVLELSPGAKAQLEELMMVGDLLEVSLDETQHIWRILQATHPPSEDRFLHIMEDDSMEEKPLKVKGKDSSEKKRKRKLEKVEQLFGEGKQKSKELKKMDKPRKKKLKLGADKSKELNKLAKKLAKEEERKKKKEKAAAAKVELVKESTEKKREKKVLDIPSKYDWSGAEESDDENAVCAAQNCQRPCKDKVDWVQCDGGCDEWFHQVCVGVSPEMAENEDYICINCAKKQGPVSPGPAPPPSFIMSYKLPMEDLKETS

The experiment has as its target T1, KDM5A (Homo sapiens, UniProt P29375).
T1 construct: Full length KDM5A enzyme was expressed and purified inhouse; made in house
Nature of the experiment: KDM5 enzyme assay, KDM5A HTRF (Example 463). The format is biochemical. The following applies: compounds of Examples 1-432; read-out: Example 463 Assay KDM5A HTRF IC50. For orientation: TR-FRET usually uses a lanthanide donor and a delayed reading to cut background.
Protocol: Full length KDM5A enzyme was expressed and purified inhouse. Biotin-H3K4me3 peptide was purchased from New England Biolabs. HTRF reagents (containing Eu-labeled H3K4me1-2 antibody, and streptavidin-XL665) were purchased from Cis-Bio International. Plates were read on an Envision multi-label plate reader Perkin Elmer).
The HTRF assay mixture contained 2 nM full length KDM5A enzyme, 100 nM H3K4Me3 peptide substrate, 1 uM 2-OG, 100 uM Fe^2+, 500 uM ascorbate. 50 mM HEPES pH 7.0 buffer, 0.01% Triton-X 100, 2 mM DTT. […] The plates were incubated at room temperature for 60 minutes and then read in the Envision plate reader.
For `CC(C)c1c(-c2cc(-c3ccccc3)co2)n(C)c2c(C#N)cnn2c1=O` [Example 187], the IC50 was 750 nM.
Take `CC(=O)N1CCC=C(c2[nH]c3c(C#N)cnn3c(=O)c2C(C)C)C1` [Example 289]: the IC50 turned out to be 35 nM.
Then `CC(C)c1c(-c2cnn(CCC#N)c2)[nH]c2c(C#N)cnn2c1=O` [Example 161], with 13 nM; and `CC(C)c1c(-c2cccc(-c3ccn[nH]3)c2)[nH]c2c(C#N)cnn2c1=O` [Compound 349], with 14 nM; and `CC(C)c1c(-c2cnn(-c3ccccn3)c2)[nH]c2c(C#N)cnn2c1=O` [Example 12, 6-Isopropyl-7-oxo-5-(1-(pyridin-2-yl)-1H-pyrazol-4-yl)-4,7-dihydropyrazolo[1,5-a]pyrimidine-3-carbonitrile], with 18 nM.
Turning to `COc1ccccc1Cn1cc(-c2[nH]c3c(C#N)cnn3c(=O)c2C(C)C)cn1` [Example 115], the IC50 was 6 nM.
The result for `CC(C)c1c(-c2ccc(NS(C)(=O)=O)cc2)[nH]c2c(C#N)cnn2c1=O` [Example 309] reads 37 nM; that for `COc1ccc(-c2[nH]c3c(C#N)cnn3c(=O)c2C(C)C)cc1C(F)(F)F` [Example 340], 31 nM.
As for `COc1ccc(-c2[nH]c3c(C#N)cnn3c(=O)c2C(C)C)cc1Cl` [Example 139], the IC50 was determined as 13 nM.
The result for `CC(C)c1c(-c2cnn(Cc3cccc(Cl)c3)c2)[nH]c2c(C#N)cnn2c1=O` [Example 157] reads 7 nM; that for `CC(C)c1c(-c2cc(C3CC3)co2)n(C)c2c(C#N)cnn2c1=O` [Example 190], 57 nM.
Then `CC(C)c1c(-c2cnn(Cc3cccc(F)c3)c2)[nH]c2c(C#N)cnn2c1=O` [Example 154], with 6 nM; and `CC(C)c1c(-c2cnn(C3CCCC3O)c2)[nH]c2c(C#N)cnn2c1=O` (stereo not shown) [Example 271], with 24 nM; and `CCc1c(-c2cnn(Cc3ccccc3)c2)n(C)c2c(C#N)cnn2c1=O` [Example 182], with 130 nM.
The result for `CC(C)c1c(-c2ccc(C(F)(F)F)cc2)n(C)c2c(C#N)cnn2c1=O` [Example 172] reads 140 nM; that for `Cc1ncc(-c2[nH]c3c(C#N)cnn3c(=O)c2C(C)C)s1` [Compound 386], 12 nM.
In the case of `CC(C)c1c(-c2cnn(Cc3cccc(-c4ccccc4)c3)c2)[nH]c2c(C#N)cnn2c1=O` [Example 113], the IC50 turned out to be 6 nM.
Then `Cc1[nH]c2c(C#N)cnn2c(=O)c1-c1ccco1` [Example 46, 6-(2-Furyl)-5-methyl-7-oxo-4H-pyrazolo[1,5-a]pyrimidine-3-carbonitrile], with 2900 nM; and `CC(C)c1c(-c2cnn(CCC3CC3)c2)[nH]c2c(C#N)cnn2c1=O` [Example 111], with 15 nM; and `CC(C)c1c(-c2ccn(C3CCCC3)n2)[nH]c2c(C#N)cnn2c1=O` [Compound 414], with 14 nM.
Consider `CC(C)c1c(-c2ccc(S(C)(=O)=O)c(F)c2)[nH]c2c(C#N)cnn2c1=O` [Example 206], for which the IC50 is 21 nM.
Take `CC(C)c1c(-c2cc(C3CC3)n(C3CCCC3)n2)[nH]c2c(C#N)cnn2c1=O` [Compound 412]: the IC50 was 46 nM.
The result for `CCc1c(-c2cccc(-c3ccccc3)c2)[nH]c2c(C#N)cnn2c1=O` [Example 40, 5-([1,1′-Biphenyl]-3-yl)-6-ethyl-7-oxo-4,7-dihydropyrazolo[1,5-a]pyrimidine-3-carbonitrile] reads 10 nM.
Consider `CC(C)c1c(-c2cc(Cl)cc(C#N)c2)[nH]c2c(C#N)cnn2c1=O` [Compound 347], for which the IC50 came to 24 nM.
For `CC(C)c1c(-c2ccco2)[nH]c2c(C#N)cnn2c1=O` [Example 81], the IC50 came out at 6.5 nM.
For the compound `CC(C)c1c(C#Cc2ccccc2)[nH]c2c(C#N)cnn2c1=O` [Example 137], the IC50 was 12 nM.
The result for `CC(C)c1c(-c2cnn(-c3ccc(F)cc3)c2)[nH]c2c(C#N)cnn2c1=O` [Compound 362] reads 24 nM; that for `C#CC(C)c1c(-c2cnn(C(C)C)c2)[nH]c2c(C#N)cnn2c1=O` (stereo not shown) [Example 38, 5-(1-isopropylpyrazol-4-yl)-6-(1-methylprop-2-ynyl)-7-oxo-4H-pyrazolo[1,5-a]pyrimidine-3-carbonitrile], 36 nM; that for `C=CC(=O)N1CC=C(c2[nH]c3c(C#N)cnn3c(=O)c2C(C)C)C1` [Example 297], 28 nM.
The result for `CC(C)c1c(-c2ccc(F)c(Cl)c2)[nH]c2c(C#N)cnn2c1=O` [Example 246] reads 22 nM; that for `CCC(=O)N1CC=C(c2[nH]c3c(C#N)cnn3c(=O)c2C(C)C)C1` [Example 291], 55 nM; that for `CC(C)c1c(-c2cnn(CCNCC(F)(F)F)c2)[nH]c2c(C#N)cnn2c1=O` [Compound 372], 15 nM.
The result for `CC(C)(C)c1c[nH]c2c(C#N)cnn2c1=O` [Example 21, 6-(tert-Butyl)-7-oxo-4,7-dihydropyrazolo[1,5-a]pyrimidine-3-carbonitrile] reads 38 nM; that for `CC(C)c1c(-c2ccc(C(F)(F)F)cc2)[nH]c2c(C#N)cnn2c1=O` [Example 69], 21 nM; that for `CCc1c(C(=O)O)n(C)c2c(C#N)cnn2c1=O` [Example 200], 900 nM.
As for `CC(C)c1c(-c2ccn(CCC3CC3)n2)[nH]c2c(C#N)cnn2c1=O` [Compound 418], the 50% inhibitory concentration (IC50) was 13 nM.
Then `CCc1c(-c2cccc(I)c2)[nH]c2c(C#N)cnn2c1=O` [Example 24, 6-ethyl-5-(3-iodophenyl)-7-oxo-4,7-dihydropyrazolo[1,5-a]pyrimidine-3-carbonitrile], with 7 nM; and `CCc1c(-c2ncc[nH]2)[nH]c2c(C#N)cnn2c1=O` [Example 30, 6-ethyl-5-(1H-imidazol-2-yl)-7-oxo-4,7-dihydropyrazolo[1,5-a]pyrimidine-3-carbonitrile], with 12 nM; and `CC(C)c1c(-c2ccc3[nH]ncc3c2)[nH]c2c(C#N)cnn2c1=O` [Example 142], with 12 nM.
As for `CC(C)c1c(-c2ccsc2)n(C)c2c(C#N)cnn2c1=O` [Example 169], the IC50 was found to be 47 nM.
Then `CC(C)c1c(-c2ccc(-c3ccccc3)nc2)[nH]c2c(C#N)cnn2c1=O` [Example 283], with 37 nM; and `CC(C)c1c(-c2cccc(C(N)=O)c2)[nH]c2c(C#N)cnn2c1=O` [Example 267], with 9.8 nM; and `CC(C)c1c(-c2cnn(C(CC#N)c3ccccc3)c2)[nH]c2c(C#N)cnn2c1=O` (stereo not shown) [Example 337], with 25 nM.
The result for `CC(C)c1c(-c2ccc(OCC3CC3)cc2)[nH]c2c(C#N)cnn2c1=O` [Example 268] reads 23 nM.
The result for `N#Cc1cnn2c(=O)c(C3CCC3)c(-c3cn[nH]c3)[nH]c12` [Example 35, 6-Cyclobutyl-7-oxo-5-(1H-pyrazol-4-yl)-4H-pyrazolo[1,5-a]pyrimidine-3-carbonitrile] reads 30 nM.
`CC(C)c1c(-c2cnn(S(=O)(=O)c3ccccc3)c2)[nH]c2c(C#N)cnn2c1=O` [Example 123]: the IC50 worked out at 8 nM.
The result for `Cc1cncc(-c2[nH]c3c(C#N)cnn3c(=O)c2C(C)C)c1` [Example 62] reads 12 nM.
`CC(C)c1c(-c2cn[nH]c2)n(C)c2c(C#N)cnn2c1=O` [Example 186]: the IC50 worked out at 49 nM.
`CC(C)c1c(-c2cccc(-c3cccc(NS(C)(=O)=O)c3)c2)[nH]c2c(C#N)cnn2c1=O` [Compound 428]: the IC50 worked out at 14 nM.
